{"source": "paper PMC2217462", "about": "(The Journal of General Physiology, 2004)", "origin": "cited, not measured here", "key": {"[1]": {"tested_on": "Kv2.1 channel, mutations at F274", "conditions": "mutations at F274 of Kv2.1; ref Li-Smerin and Swartz, 2000"}, "[2]": {"tested_on": "Kv2.1 channel, basic substitutions at E277", "conditions": "substitution of basic residues at E277 of Kv2.1; ref Li-Smerin and Swartz, 2000"}}}
{"substance": "hanatoxin", "values": [{"measurement": "fold increase in hanatoxin Kd", "setting": "[1]", "result": "≤ 500", "unit": "fold"}, {"measurement": "fold increase in hanatoxin Kd", "setting": "[2]", "result": "≤ 125", "unit": "fold"}]}
